The values that follow come from patent US20250268910A1 (priority 2022, published 2025).

For orientation: Ki means the dissociation constant of the complex between target and ligand, obtained from inhibition or displacement.

For assay [1], the system named is citric acid-induced cough in guinea pigs. In words: In vivo citric acid-induced cough in guinea pigs (whole body plethysmograph). The following applies: for cough incubation period: p<0.05 vs saline control (232 seconds). On the procedure: As depicted in FIG. 1, cough induction is conducted by placing guinea pigs into a whole body plethysmograph (WBP) equipped with a Aeroneb™ vibrating mesh nebulizer, and including pressure transducers and detection equipment (EMKA technologies). A primary microphone is supplied (EMKA Technologies) for acoustic confirmation of cough frequency in the form of a digital trace using the EMKA software.
A secondary microphone (T1 True Wireless Earphone, QCY®) also is placed in the chamber and connected to a smartphone via Bluetooth to enable the observers to hear the audible sounds during the test. A bias flow rate of 2 L/min is used to continuously draw either atmospheric air (during the fresh air period) or aerosolized citric acid from the nebulizer into the WBP and expel it out through an exhaust pipe. Chamber pressure in the WBP is set to be between −10 to −30 Pa relative to ambient pressure.
Prior to the citric acid challenge, the guinea pigs are administered (intraperitoneal injection) with vehicle control, positive control or test compound (where applicable) with different dosage (Table 2) and placed individually into the WBP for at least 5 minutes in order to habituate.
The procedure was as follows: Injection→mice in box having citric acid for 10 mins (counting the cough)→box then fill with air for 5 mins (counting the cough)→mice move to recovery cage.
Appropriate concentration of citric acid is used to generate aerosol and deliver to WBP for 10 minutes with constant recording of pressure measurements. The mean concentration of citric acid was 1283.1±137.2 μg/L. Upon completion of citric acid challenge, the guinea pig is allowed to recover and continue recording of cough counts for another 5 minutes. Subsequently, the guinea pigs are closely monitored in recovery cage for full recovery from the challenge and that no adverse events were present before returning the animals to its home cage. Cough counts (CCnt) are recorded over a period of at least 10 mins, starting from citric acid stimulation and cough incubation period (CIP) are defined as the time it takes to cough for the first time after citric acid stimulation.
The cough response during citric acid challenge and post-treatment recovery is carefully monitored using: • continuous pressure monitoring (plethysmography monitoring software) • acoustic confirmation of cough using microphones (primary and secondary) • visual confirmation of cough through posture change.
The data were analysed using Oneway ANOVA (*p<0.05, **p<0.01, ***p<0.001, ****p<0.0001) when compared to saline control, and each column represents Mean±SEM.

The next assay addresses T1, human α7 nAChR subtype (Homo sapiens, UniProt P36544).
T1 construct: expressed in transfected cells; host or cells: SH-SY5Y cells (membranes)
Description: biochemical. In kind it is binding.

T1 sequence (P36544 23-502): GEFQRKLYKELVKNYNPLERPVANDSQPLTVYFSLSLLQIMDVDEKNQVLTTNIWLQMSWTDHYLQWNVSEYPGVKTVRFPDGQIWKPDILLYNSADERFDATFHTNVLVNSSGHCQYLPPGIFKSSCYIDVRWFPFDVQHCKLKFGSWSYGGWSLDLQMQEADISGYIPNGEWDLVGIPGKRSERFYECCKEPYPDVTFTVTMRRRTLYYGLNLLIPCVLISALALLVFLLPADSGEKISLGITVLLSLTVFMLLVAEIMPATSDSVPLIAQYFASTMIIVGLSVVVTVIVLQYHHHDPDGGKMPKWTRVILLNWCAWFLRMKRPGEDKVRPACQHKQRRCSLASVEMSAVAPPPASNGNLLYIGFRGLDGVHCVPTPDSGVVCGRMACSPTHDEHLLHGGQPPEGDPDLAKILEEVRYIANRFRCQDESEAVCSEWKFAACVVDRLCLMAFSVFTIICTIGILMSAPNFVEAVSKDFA

As for `C1=C(c2ccc(-c3ccccc3)nc2)C2CCN(C1)CC2` [4-(6-Phenyl-3-pyridyl)-1-azabicyclo[3.2.2]non-3-ene], the “citric acid-induced cough counts (number of coughs)” value is recorded as 7 in assay [1] (high concentration 15 mg/kg intraperitoneal, p<0.05 vs saline control (13 coughs)); 3 in assay [1] (low concentration 1.5 mg/kg intraperitoneal, p<0.0001 vs saline control (13 coughs)); 6 in assay [1] (medium concentration 5 mg/kg intraperitoneal, p<0.05 vs saline control (13 coughs)). Further, the cough incubation period was determined as 491 s in assay [1] (high concentration 15 mg/kg intraperitoneal) and 504 s in assay [1] (low concentration 1.5 mg/kg intraperitoneal). Further, the Ki on human α7 nAChR subtype was 130 nM.
For `C1=C(c2ccc(-c3ccccc3)nn2)C2CCN(C1)CC2` [4-(6-Phenylpyridazin-3-yl)-1-azabicyclo[3.2.2]non-3-ene], the inhibitory constant (Ki) on human α7 nAChR subtype was determined as 320 nM.
